According to patent publication US20090105461A1, “Calicheamicin conjugates” (priority 2004, published 2009):

Columns and labels:
[1] = tested on: human carcinoma xenografts; assay: Human carcinoma xenografts in nude mice (all models); format: in vivo; conditions: doses equivalent to hu3S193-AcBut-CM; earlier experiments, data not shown
Procedure: (§1) The antitumor efficacy of calicheamicin conjugated to anti-Lewis Y antibodies was evaluated against human carcinoma xenografts established subcutaneously (SC) in nude mice. The evaluated xenografts included carcinomas that had either high or low expression of the Lewis Y antigen and carcinomas from breast, colon, lung, and prostate. Mice bearing solid tumors with an average mass of 150 to 300 mg were randomized to various treatment groups.
(§2) The efficacy in vivo of CMD-193 was tested on subcutaneous xenografts from gastric (N87), lung (L2987), cervical/epidermoid (A431/Le^y) and colon (LS174T and LOVO) carcinomas. Unless indicated otherwise, all conjugates and controls were injected intraperitoneally according to Q4DX3 schedule. To monitor for tumor targeting due to the carrier function of immunoglobulin, CMA was used as a negative control. Based on the studies described below, a dosage of 15 mg/kg of CMD-193 (equivalent to a conjugated antibody protein dosage in the range of 562 to 803 mg/m^2) was considered to be the minimum efficacious dose (MED).

[2] = tested on: HL-60 promyelocytic leukemia cells; conditions: HL-60 leukemia cells
[3] = tested on: N87 gastric carcinoma xenografts; assay: N87 gastric carcinoma xenografts; format: in vivo, nude mice; conditions: 150 mm^3 xenografts
Procedure: as §1
(§3) The efficacy in vivo of hu3S193-AcBut-CM was tested on subcutaneous xenografts from gastric (N87, FIG. 3), prostate (LNCaP, FIG. 4) and colon (LOVO, FIGS. 5 and 6) carcinomas. Subcutaneous tumors of N87, LOVO and LNCaP were grown in athymic nude mice (Charles River, Wilmington, Mass.). Female mice of 1.5 to 3 months old were injected with respectively 5×10^6 N87 or 10^7 LOVO cells per mouse. LNCaP cells were injected in male nude mice that were 3 months old. To grow tumors, N87 and LNCaP cells had to be mixed (1:1, vol/vol) with […]® (Collaborative Biomedical Products, Belford, Mass.) prior to injection. Two perpendicular diameters of the tumor were measured at least once a week by means of calipers. The tumor volume was calculated according to the formula of Attia & Weiss: A^2×B×0.4.
Unless indicated otherwise, 3 doses of each conjugate and control were given intraperitoneally with an interval of 4 days (Q4Dx3). […]

[4] = tested on: LOVO colon carcinoma xenografts; assay: LOVO colon carcinoma xenografts; format: in vivo, nude mice; conditions: for tumor inhibition of LOVO xenografts: hu3S193-AcBut-CM experiments (FIGS. 5, 6)
Procedure: as §3
Unless indicated otherwise, 3 doses of each conjugate and control were given intraperitoneally with an interval of 4 days (Q4Dx3). In vivo, hu3S193-AcBut-CM inhibited tumor growth in these three separate models. Hu3S193-AcBut-CM cured mice from gastric carcinoma xenografts (N87) having high expression of Lewis Y antigen (FIG. 3). […] In the LOVO model, the efficacy of hu3S193-AcBut-CM was improved by increasing the amount of the conjugate (FIG. 5).
Mice bearing LOVO xenografts of 100 mm^3 were treated with control conjugates (RITUXAN-AcBut-CM, FIG. 5A), PBS (FIGS. 5A and 5B), hu3S193 (FIG. 5B) or hu3S193-AcBut-CM (FIG. 5B). Except for the group treated with Hu3S193-AcBut-CM at 4 μg/dose, mice in each group received three doses i.p. The amount of each dose in calicheamicin equivalents is specified in the legend. Conjugates and controls were injected at day 1, 5 and 9. The groups were designated as follows: hu3S193-AcBut-CM, received an additional regimen of three doses at day 43, 47 and 51. The number of mice per group (n) is reported in C. Differences in tumor size at day 30 were probed for statistical significance by a 2-tailed Students t-test.
Mice bearing LOVO xenografts of 100 mm^3 were treated with control conjugates: RITUXAN-AcBut-CM and CMA (FIG. 6A), PBS or hu3S193-AcBut-CM (FIG. 6B). Mice in each group received three or four doses i.p. The amount of each dose in calicheamicin equivalents is specified in the legend. Conjugates and controls were injected at day 1, 5 and 9. The group designated: hu3S193-AcBut-CM*, received an additional dose at day 13. The number of mice per group equals n and p-values of a 2-tailed Students t-test were determined.
Mice bearing LOVO xenografts were tested to investigate the potential benefits of regimens different from 4 μg cal.eq./dose/mouse at Q4DX3. Mice bearing LOVO xenografts of approximately 100 mm^3 were treated with PBS, G193 or various regimens of a control conjugate CMA or CMD. The amount of each dose in calicheamicin equivalents is specified in the legends. The LOVO-model was chosen for this type of experiment because of the marginal efficacy seen with 4 μg cal.eq. at Q4DX3.

[5] = tested on: L2987 lung carcinoma xenografts; assay: L2987 lung carcinoma xenografts; format: in vivo, nude mice; conditions: 0.375 to 3 μg/dose/mouse, Q4DX3 i.p.
Procedure: as §2
Mice bearing L2987 xenografts of 100 mm^3 were treated with a control conjugate (CMA), PBS or CMD. Mice in each group received three doses i.p. The amount of each dose in calicheamicin equivalents is specified in the legends. Conjugates and controls were injected at day 1, 5 and 9. […] The error bars represent the standard deviation of the average tumor volume at each time point. The number of mice (expressed as a percentage) with a tumor size smaller than the initial tumor average of each group was plotted as a function of the observation period in FIG. 12. Treatment with CMA (FIG. 12A) or CMD (FIG. 12B) is compared to treatment with vehicle control (PBS).
For the experiment shown in FIG. 13, 10 mice received L2987 xenografts. […]

[6] = tested on: LS174T colon carcinoma xenografts; assay: LS174T colon carcinoma xenografts; format: in vivo, nude mice
Procedure: as §2
Mice bearing LS174T xenografts of 150 mm^3 were treated with a control conjugate (CMA), PBS or CMD. Mice in each group received three doses i.p. The amount of each dose in calicheamicin equivalents is specified in the legends. Conjugates and controls were injected at day 1, 5 and 9. LS174T tumors proliferated so fast that in the control group all the mice had to be killed within a 51-day period because of the large tumor burden (>2.5 cm^3). In the group treated with 4 ug cal.eq. CMD (Q4DX3), 3 out of five mice were killed within 44 days because of a large tumor burden (1/3) or because of necrosis of the tumor (2/3). Of the other two mice one remained tumor-free for 125 days while the other one had developed a small tumor. […] CMD (Q4DX3) or 4 ug cal.eq CMA (Q4DX3). […]

[7] = tested on: MX1 breast carcinoma xenografts; assay: MX1 breast carcinoma xenografts; format: in vivo, nude mice; conditions: MX1, at least 35 days
Procedure: The effect of CMD-193 on the growth of established xenografts of carcinomas that had low expression of the Lewis Y antigen was also examined in MX1 breast carcinoma. CMA-676 was used as a nonbinding control conjugate. Nude mice explanted with MX1 breast carcinoma were treated with various dosages of CMD-193 (40 to 240 mg/kg) or CMA-676 (a negative control). Tumor growth was recorded for at least 35 days. In contrast, CMA-676 was effective only at the highest dosages (160 mg/kg) tested.

Row | Molecule | tumor inhibition by free CM [1] | major biotransformation pathways (cytosol) | metabolites after incubation (human liver microsomes and cytosol) | biotransformation pathways (microsomes) | metabolites produced [2] | growth inhibition versus hu3S193-AcBut-CM or CMD at equivalent doses [3] | efficacy on LOVO xenografts ([4]; CMD experiment (FIG. 18)) | tumor inhibition of LOVO xenografts [4] | growth of L2987 xenografts [5] | cures ([6]; 2 ug cal.eq. Q4DX3) | cures ([6]; 4 ug cal.eq. Q4DX3) | lowest dosage with significant growth inhibition [7] | period of statistically significant difference in tumor size from PBS ([4]; 2 μg cal.eq. per mouse Q4Dx3) | period of statistically significant difference in tumor size from PBS ([4]; 4 μg cal.eq. per mouse Q4Dx3)
1 | CCN(C(C)=O)[C@H]1CO[C@@H](O[C@H]2[C@H](O[C@H]3C#C/C=C\C#C[C@]4(O)CC(=O)C(NC(=O)OC)=C3/C4=C\CSSC(C)(C)CC(=O)NN)O[C@H](C)[C@@H](NO[C@H]3C[C@H](O)[C@H](SC(=O)c4c(C)c(I)c(O[C@@H]5O[C@@H](C)[C@H](O)[C@@H](OC)[C@H]5O)c(OC)c4OC)[C@@H](C)O3)[C@@H]2O)C[C@@H]1OC [CM, N-acetyl gamma calicheamicin dimethyl hydrazide] | never inhibited | formation of NAc-epsilon calicheamicin and it's derivatives | Many metabolites were found | hydroxylation and demethylation | Several metabolites, including NAc-epsilon calicheamicin and its isomer | – | – | – | – | – | – | – | – | –
2 | CMA-676: calicheamicin conjugate of an anti-CD33 antibody, used as control conjugate | – | – | – | – | – | inhibited growth significantly less | lack of efficacy | negligible tumor inhibition | significant growth inhibitory effect | one out of the five | No cures | 160 mg/kg | – | –
3 | RITUXAN-AcBut-CM: calicheamicin-conjugate of RITUXAN (anti-CD20), control conjugate | – | – | – | – | – | – | – | negligible tumor inhibition | – | – | – | – | 16 days | 16 days
